Assay results from ChEMBL document CHEMBL3393028, “Discovery and characterization of MAPK-activated protein kinase-2 prevention of activation inhibitors” (J Med Chem, 2015).
In brackets after ≈: the same amount, converted by molar mass. Activity calls are given as the source filed them. The calls are words filed in the database; no cut-off is given here.

Tests used:
[1] = biological target: T1, Mitogen-activated protein kinase 14 (Homo sapiens, UniProt Q16539); assay: Inhibition of human recombinant 5'-c-myc, His6-tagged p38-alpha using MSK1 as substrate assessed as inhibition of phosphorylation after 60 mins by ELISA in presence of ATP
Cytochrome P450 3A4 = Cytochrome P450 3A4 (Homo sapiens, UniProt P08684); assay: Inhibition of CYP3A4 (unknown origin); assay type: ADME
[2] = biological target: T1, Mitogen-activated protein kinase 14; assay: Inhibition of human recombinant 5'-c-myc, His6-tagged p38-alpha using MK2 (46 to 400) as substrate assessed as inhibition of phosphorylation after 60 mins by ELISA in presence of ATP
[3] = biological target: T1, Mitogen-activated protein kinase 14; assay: Inhibition of p38-alpha (unknown origin) by p38alpha-MBP IoC assay
[4] = biological target: T1, Mitogen-activated protein kinase 14; assay: Inhibition of p38-alpha in human PBMC assessed as inhibition of LPS-induced TNF-alpha production incubated for 30 mins prior to LPS challenge measured after 7 hrs by ELISA
[5] = biological target: T1, Mitogen-activated protein kinase 14; assay: Inhibition of p38-alpha in human TC28 cells assessed as inhibition of IL-1-induced PGE2 production incubated for 20 mins prior to IL-1 challenge measured after 24 hrs by ELISA; assay type: cell-based
[6] = biological target: Insulin-like growth factor 1 receptor (Homo sapiens) (UniProt P08069); details: 10 uM
Description: Inhibition of IGF1R (unknown origin) at 10 uM

[7] = Thermodynamic solubility of the compound at pH 7.4; assay type: physicochemical; details: buffer, read-out: Therm_solubility
[8] = Intrinsic clearance in rat hepatocytes assessed per 10^6 cells; assay type: ADME, cell-based, Hepatocyte; details: read-out: CLH
[9] = biological target: MAP kinase-activated protein kinase 2 (Homo sapiens) (UniProt P49137); assay: Binding affinity to phosphorylated full length 2H,15N-labeled MK2 (unknown origin) expressed in Escherichia coli by 2D-NMR analysis
[10] = Fraction unbound in human plasma by equilibrium dialysis method; assay type: ADME, cell-free
[11] = Fraction unbound in rat plasma by equilibrium dialysis method; assay type: ADME, cell-free
[12] = Intrinsic clearance in human liver microsomes; assay type: ADME; details: read-out: CLH
[13] = Lipophilicity, log D of the compound at pH 7.4; assay type: physicochemical; details: buffer
[14] = biological target: T1, Mitogen-activated protein kinase 14; assay: Competitive inhibition of human recombinant 5'-c-myc, His6-tagged p38-alpha using MK2 (46-400) as substrate
[15] = biological target: T1, Mitogen-activated protein kinase 14; assay: Displacement of 1-[7-[3-[4-(aminomethyl)-1-piperidyl]propoxy]-6-methoxy-quinazolin-4-yl]-3-(2-chloro-6-methylphenyl)urea from GST-tagged phosphorylated p38-alpha (unknown origin) by surface plasmon resonance based ISA method

T1 sequence (Q16539 whole entry): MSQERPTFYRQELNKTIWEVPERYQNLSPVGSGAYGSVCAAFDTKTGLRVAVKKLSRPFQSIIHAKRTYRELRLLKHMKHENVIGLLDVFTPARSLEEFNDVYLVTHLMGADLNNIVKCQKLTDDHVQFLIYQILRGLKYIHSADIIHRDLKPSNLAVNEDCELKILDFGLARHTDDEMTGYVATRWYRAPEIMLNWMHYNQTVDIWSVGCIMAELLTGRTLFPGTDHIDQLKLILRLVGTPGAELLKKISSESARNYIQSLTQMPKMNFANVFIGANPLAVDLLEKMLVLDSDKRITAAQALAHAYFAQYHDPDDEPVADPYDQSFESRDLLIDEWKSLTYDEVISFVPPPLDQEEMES
Cytochrome P450 3A4, sequence (P08684 whole entry): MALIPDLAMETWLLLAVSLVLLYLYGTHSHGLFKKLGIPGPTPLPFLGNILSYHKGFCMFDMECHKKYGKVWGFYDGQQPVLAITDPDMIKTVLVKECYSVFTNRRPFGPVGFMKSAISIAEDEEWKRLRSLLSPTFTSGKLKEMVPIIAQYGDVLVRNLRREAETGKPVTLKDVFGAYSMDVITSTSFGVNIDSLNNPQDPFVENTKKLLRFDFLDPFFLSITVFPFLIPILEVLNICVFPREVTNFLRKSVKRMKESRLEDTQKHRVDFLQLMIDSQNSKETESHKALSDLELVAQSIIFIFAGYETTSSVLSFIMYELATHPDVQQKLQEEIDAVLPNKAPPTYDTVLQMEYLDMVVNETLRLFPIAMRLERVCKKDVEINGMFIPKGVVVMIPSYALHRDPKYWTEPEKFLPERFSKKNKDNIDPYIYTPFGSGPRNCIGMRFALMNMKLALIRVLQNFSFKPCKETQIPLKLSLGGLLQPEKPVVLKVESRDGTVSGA
Insulin-like growth factor 1 receptor (Homo sapiens), sequence (P08069 31-736 limits assumed): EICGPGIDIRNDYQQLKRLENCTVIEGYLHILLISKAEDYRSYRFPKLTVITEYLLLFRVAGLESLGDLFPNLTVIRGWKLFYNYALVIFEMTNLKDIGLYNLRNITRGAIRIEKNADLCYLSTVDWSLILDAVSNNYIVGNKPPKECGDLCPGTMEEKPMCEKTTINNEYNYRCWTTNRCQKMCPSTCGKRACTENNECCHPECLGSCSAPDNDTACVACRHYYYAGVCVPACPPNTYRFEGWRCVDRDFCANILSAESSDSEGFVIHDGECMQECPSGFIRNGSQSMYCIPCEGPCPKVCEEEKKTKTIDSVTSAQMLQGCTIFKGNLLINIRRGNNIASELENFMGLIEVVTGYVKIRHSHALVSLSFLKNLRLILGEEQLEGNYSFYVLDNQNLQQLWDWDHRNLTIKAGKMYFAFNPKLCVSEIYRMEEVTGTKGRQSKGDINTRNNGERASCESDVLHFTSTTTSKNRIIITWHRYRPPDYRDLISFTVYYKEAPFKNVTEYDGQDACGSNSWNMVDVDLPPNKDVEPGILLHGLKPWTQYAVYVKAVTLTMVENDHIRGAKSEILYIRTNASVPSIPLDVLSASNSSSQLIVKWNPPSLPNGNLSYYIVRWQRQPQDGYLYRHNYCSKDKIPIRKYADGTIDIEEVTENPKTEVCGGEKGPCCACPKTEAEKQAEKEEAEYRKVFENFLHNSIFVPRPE
Insulin-like growth factor 1 receptor (Homo sapiens), sequence (P08069 741-1367 limits assumed): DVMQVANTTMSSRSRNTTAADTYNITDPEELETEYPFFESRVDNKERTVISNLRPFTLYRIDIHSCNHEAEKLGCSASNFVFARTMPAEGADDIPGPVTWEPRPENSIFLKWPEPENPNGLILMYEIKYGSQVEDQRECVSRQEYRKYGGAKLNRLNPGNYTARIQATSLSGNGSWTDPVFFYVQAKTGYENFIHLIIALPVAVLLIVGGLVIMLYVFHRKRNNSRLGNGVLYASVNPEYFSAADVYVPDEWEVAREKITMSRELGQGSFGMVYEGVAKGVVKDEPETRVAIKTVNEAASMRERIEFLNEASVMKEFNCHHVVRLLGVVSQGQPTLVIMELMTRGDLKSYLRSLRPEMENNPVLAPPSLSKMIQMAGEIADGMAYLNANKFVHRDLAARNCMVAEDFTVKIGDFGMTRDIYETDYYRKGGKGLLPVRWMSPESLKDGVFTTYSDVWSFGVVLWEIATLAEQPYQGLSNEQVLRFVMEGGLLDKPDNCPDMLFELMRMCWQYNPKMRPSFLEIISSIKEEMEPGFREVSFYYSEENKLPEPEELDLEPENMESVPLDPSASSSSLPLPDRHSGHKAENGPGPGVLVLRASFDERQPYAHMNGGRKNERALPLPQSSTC
MAP kinase-activated protein kinase 2 (Homo sapiens), sequence (P49137 whole entry, looked up): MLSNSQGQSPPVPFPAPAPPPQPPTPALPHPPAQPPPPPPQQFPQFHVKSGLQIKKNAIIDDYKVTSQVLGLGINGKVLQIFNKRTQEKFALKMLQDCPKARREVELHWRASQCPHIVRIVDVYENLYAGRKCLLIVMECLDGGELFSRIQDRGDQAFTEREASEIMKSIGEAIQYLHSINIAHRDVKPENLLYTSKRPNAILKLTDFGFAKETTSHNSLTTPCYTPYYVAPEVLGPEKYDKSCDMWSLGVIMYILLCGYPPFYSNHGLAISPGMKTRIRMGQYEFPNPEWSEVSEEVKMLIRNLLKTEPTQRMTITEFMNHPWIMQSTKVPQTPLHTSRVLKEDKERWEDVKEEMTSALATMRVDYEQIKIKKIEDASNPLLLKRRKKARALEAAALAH

SMILES | IC50 [1] | IC50 (Cytochrome P450 3A4) | IC50 [2] | IC50 [3] | also measured
O=C(NCc1ccncc1)c1ccc(Oc2ccc(Cl)cc2)cc1 | 10 µM | 1 µM | 2.4 µM | > 10 µM | 
CCCc1c(C(=O)Nc2cc(C(=O)O)ccc2C)cnn1-c1ccccc1 | 4.2 µM |  | 0.086 µM | > 10 µM | IC50 [4]: 21 µM
Cc1ccccc1Oc1ccc(C(=O)NCc2ccncc2)cc1 | 5.4 µM |  | 2 µM | > 10 µM | 
N#Cc1ccccc1Oc1ccc(C(=O)NCc2cccnc2)cc1 | 15 µM | > 10 µM | 0.56 µM | > 10 µM | IC50 [5]: 4.7 µM
CCCc1c(C(=O)Nc2cc(S(=O)(=O)N(C)C)ccc2C)cnn1-c1ccc(Cl)cc1 | 20 µM |  | 0.39 µM | > 10 µM | 
CCCc1c(C(=O)Nc2cc(S(=O)(=O)N(C)C)ccc2C)cnn1-c1ccccc1 |  |  |  |  | inhibition [6]: 30%; solubility thermodynamic [7]: 0.55 µM (≈ 0.235 µg/mL); hepatocyte CLint [8]: 42 µL/min/1e6 cells; Activity [9]: inactive; fraction unbound [10]: 0.023; fraction unbound [11]: 0.031; microsomal CLint [12]: 62 µL/min/mg
CCCc1c(C(=O)Nc2cc(C(=O)OC)ccc2C)cnn1-c1ccccc1 | 0.5 µM |  | 0.49 µM | > 10 µM | 
CCCc1c(C(=O)Nc2cc(S(=O)(=O)N(C)C)ccc2C)cnn1Cc1ccccc1 | 6.3 µM |  | 0.053 µM | > 10 µM | 
CCCc1c(C(=O)Nc2cc(S(=O)(=O)N(C)C)ccc2C)cnn1-c1cccnc1 | > 30 µM |  | 0.27 µM | > 10 µM | solubility thermodynamic [7]: 21 µM (≈ 8.98 µg/mL); hepatocyte CLint [8]: 10 µL/min/1e6 cells; fraction unbound [10]: 0.26; fraction unbound [11]: 0.24; microsomal CLint [12]: 143 µL/min/mg; logD [13]: 2.3
CCCc1c(C(=O)Nc2cc(OCc3ccccc3)ccc2C)cnn1-c1ccccc1 | > 100 µM |  | > 100 µM | > 10 µM | 
O=C(NCc1ccncc1)c1ccc(Oc2ccc(F)cc2)cc1 | 2.3 µM | 1 µM | 2.1 µM | > 10 µM | 
CCCc1c(C(=O)Nc2cc(S(=O)(=O)N(C)C)ccc2C)cnn1CC(C)C | 5.4 µM |  | 0.076 µM | > 10 µM | 
CCCc1c(C(=O)Nc2cc(C#N)ccc2C)cnn1-c1ccccc1 | 0.89 µM |  | 0.015 µM | > 10 µM | IC50 [5]: 0.21 µM
N#Cc1ccccc1Oc1ccc(C(=O)NCc2ccncn2)cc1 | > 100 µM | > 10 µM | 2.8 µM | > 10 µM | solubility thermodynamic [7]: 360 µM (≈ 119 µg/mL); hepatocyte CLint [8]: 23 µL/min/1e6 cells; fraction unbound [10]: 0.27; fraction unbound [11]: 0.2; IC50 [5]: 7.1 µM; microsomal CLint [12]: < 2 µL/min/mg
N#Cc1ccccc1Oc1ccc(C(=O)NCc2ccncc2)cc1 | 21 µM | 1 µM | 0.6 µM | > 10 µM | inhibition [6]: 30%; solubility thermodynamic [7]: 120 µM (≈ 39.5 µg/mL); hepatocyte CLint [8]: 28 µL/min/1e6 cells; Activity [9]: inactive; fraction unbound [10]: 0.085; fraction unbound [11]: 0.14; Ki [14]: 0.29 µM; IC50 [4]: 5.4 µM; IC50 [5]: 25 µM; Kd [15]: > 20 µM; microsomal CLint [12]: < 2 µL/min/mg
O=C(NCc1ccncc1)c1ccc(Oc2ccccc2Cl)cc1 | 1.7 µM |  | 1.7 µM | > 10 µM | 
CCCc1c(C(=O)Nc2cc(F)ccc2C)cnn1-c1ccccc1 | 2.5 µM |  | 0.11 µM | > 10 µM | 
CCCc1c(C(=O)Nc2cc(S(C)(=O)=O)ccc2C)cnn1-c1ccccc1 | 23 µM |  | 0.19 µM | > 10 µM | 
N#Cc1ccccc1Oc1ccc(C(=O)NCc2ccccc2)cc1 | > 100 µM | > 10 µM | 0.45 µM | > 10 µM | IC50 [5]: 1.4 µM
CCCc1c(C(=O)Nc2cc(O)ccc2C)cnn1-c1ccccc1 | < 0.046 µM |  | < 0.046 µM | > 10 µM | 
